Source: patent US20060009506A1, “Drugs for the treatment of neoplastic disorders” (Odyssey Thera, Inc., priority 2004, published 2006)

Experiments:
A549 cells = assay: MTT proliferation assay, non-small cell lung carcinoma A549; type: cell-based, Human; conditions: Tumor Cell: NSCLC (A549), concentrations tested in microM
Excerpt: (§1) We first screened compounds derived from the known pharmacopeia and from a selected natural product collection using two types of assays: (a) measurements of post-translational modifications of proteins; (b) measurements of protein-protein interactions. For the purpose of measuring post-translational modifications of proteins, we used immunofluorescence methods combined with phospho-specific antibodies. For the purpose of quantifying and localizing protein complexes we used fluorescence methods based on protein-fragment complementation assays (PCA). ‘Hits’ from the initial screens were then tested for antiproliferative activity in up to 5 different human tumor cell lines. […] For drugs with antiproliferative activity in PC-3 cells, dose-response curves were generated to determine the EC50 for antiproliferative activity and additional tumor cell lines were tested to determine the breadth of activity. Methods for assay development, validation, screening, and testing of antiproliferative activity are described below.
(§2) Cells were maintained in various media as follows: A549, LoVo and PC-3 (Ham's F12K medium with 2 mM L-glutamine and 1.5 g/L sodium bicarbonate), MIA PaCa-2 (Dulbecco's modified Eagle's medium with 4 mM L-glutamine and 4.5 g/L glucose), U87-MG (MEM+Earle's BSS). Medium for each cell line was supplemented with 10% FBS and […] Penecillin/Streptomycin. All cells were grown in incubators set at 37° C., 5% CO2. Thiazolyl Blue Tetrazolium Bromide (MTT) based proliferation assays were performed to assess the anti-proliferative activities of the compounds on these cells. Cells were seeded in 96 well plates at a density of 750 cells/well 24 hours prior to compound treatment. The cells were incubated with varying concentrations of compounds for 120 hours. […] Drug treatment was performed in 5 replicate wells. Background absorbance was established by wells containing medium but no cells. Vehicle (DMSO) only was used as control. MTT (Sigma-Aldrich, St. Louis, Mo.) was added to each well at a final concentration of 0.5 mg/ml. Following a 2 hour incubation at 37° C., medium in the wells was replaced with 0.15 ml DMSO. The plates were agitated for 15 min using a microtiter plate shaker.

MIA PaCa-2 cells = assay: MTT proliferation assay, pancreatic carcinoma MIA PaCa-2; type: cell-based; conditions: Homo sapiens, Tumor Cell: Pancreatic (MIA PaCa-2), concentrations tested in microM
Excerpt: as §1, §2

cancer pathways = assay: Screening of cancer pathways in human cells (PCA and phospho-immunofluorescence); type: cell-based; conditions: cancer pathway in which the drug was active; screened at 10 micromolar, HEK293 cells
Excerpt: as §1
Immunofluorescence was performed on drug-treated cells using antibodies that specifically recognize phosphorylated forms of key signaling proteins. HEK293T cells were seeded in black-walled, poly-lysine coated 96-well plates (Greiner) at a density of 30,000/well. After 24 hours, cells in duplicate wells were treated with drugs. 100 ng/ml hEGF added to the cells during the last 5 min of drug treatment. The cells were rinsed once with PBS and fixed with 4% formaldehyde for 10 min. The cells were subsequently permeabilized with 0.25% Triton X-100 in PBS and incubated with 3% BSA for 30 min to block non-specific antibody binding. Each of the 4 sets of identically treated cells were then incubated with rabbit antibodies against phosphorylated CREB (Ser133), hsp27 (Ser82), pERK (T202/Y204) (Cell Signaling), or BSA in PBS. The cells were rinsed with PBS and incubated with Alexa488 conjugated goat anti-rabbit secondary antibody (Molecular Probes). Cell nuclei were stained with Hoechst33342 (Molecular Probes). Images were acquired using Discovery-1 High Content Imaging System (Molecular Devices). Background fluorescence due to nonspecific binding by the secondary antibody was established with the use of cells that were incubated with BSA/PBS and without primary antibodies. Fluorescence intensities were quantitated using Image J-based image analysis algorithm as described below.
Reporter fragments for PCA were generated by oligonucleotide synthesis (Blue Heron Biotechnology, Bothell, Wash.). First, oligonucleotides coding for polypeptide fragments YFP[1]and YFP[2] […] Next, PCR mutagenesis was used to generate the mutant fragments IFP[1] and IFP[2]. The IFP[1] fragment corresponds to YFP[1]-(F46L, F64L, M153T) and the IFP[2] fragment corresponds to YFP[2]-(V163A, S175G). […] The YFP[1], YFP[2], IFP[1] and IFP[2] fragments were amplified by PCR to incorporate restriction sites and a linker sequence, described below, in configurations that would allow fusion of a gene of interest to either the 5′- or 3′-end of each reporter fragment. The reporter-linker fragment cassettes were subcloned into a mammalian expression vector (pcDNA3.1Z, Invitrogen) that had been modified to incorporate the replication origin (oriP) of the Epstein Barr virus (EBV). […] Additionally, these vectors still retain the SV40 origin, allowing for episomal expression in cell lines expressing the SV40 large T antigen (e.g. HEK293T, Jurkat or COS). […] PCA fusion constructs were prepared for a large number of proteins known to participate in cellular pathways (Table 1 and Table 2). The full coding sequence for each gene of interest was amplified by PCR from a sequence-verified full-length cDNA.

cancer cells = assay: Antiproliferative activity against cancer cells (cell line not stated); type: cell-based, human; conditions: general statement
Excerpt: as §1
Cells were maintained in various media as follows: A549, LoVo and PC-3 (Ham's F12K medium with 2 mM L-glutamine and 1.5 g/L sodium bicarbonate), MIA PaCa-2 (Dulbecco's modified Eagle's medium with 4 mM L-glutamine and 4.5 g/L glucose), U87-MG (MEM+Earle's BSS). Medium for each cell line was supplemented with 10% FBS and […] Penecillin/Streptomycin. All cells were grown in incubators set at 37° C., 5% CO2. Thiazolyl Blue Tetrazolium Bromide (MTT) based proliferation assays were performed to assess the anti-proliferative activities of the compounds on these cells. Cells were seeded in 96 well plates at a density of 750 cells/well 24 hours prior to compound treatment. The cells were incubated with varying concentrations of compounds for 120 hours. Compound concentrations range from 0.03 to 100 microM (half log increments) except for alpha-Tomatine (0.001-100 microM, half log increments), Neriifolin (0.0002-100 microM) and Peruvoside (0.01-100 microM). Drug treatment was performed in 5 replicate wells. Background absorbance was established by wells containing medium but no cells. Vehicle (DMSO) only was used as control. MTT (Sigma-Aldrich, St. Louis, Mo.) was added to each well at a final concentration of 0.5 mg/ml. Following a 2 hour incubation at 37° C., medium in the wells was replaced with 0.15 ml DMSO. The plates were agitated for 15 min using a microtiter plate shaker. […] Mean absorbance values were calculated from 5 replicate wells of each drug treatment following subtraction of background absorbance from blank samples and plotted as a percentage of control.

Compound	IC50 (A549 cells; Homo sapiens, A549, 120 h) [µM]	IC50 (MIA PaCa-2 cells; MIA PaCa-2, 120 h) [µM]	Pathway Activity (cancer pathways)	Antiproliferative activity against cancer cells (cancer cells)	IC50 (A549 cells; Homo sapiens, 120 hours) [µM]	IC50 (MIA PaCa-2 cells; 120 hours) [µM]	IC50 (A549 cells; 120 hours) [µM]
CNCCCN1c2ccccc2CCc2ccccc21 [Desipramine]	11.9	1.93	proliferation	substantial antiproliferative activity	–	–	–
CCN(CC)CCOc1ccc(C(=C(Cl)c2ccccc2)c2ccccc2)cc1 [Clomiphene]	–	–	proliferation	substantial antiproliferative activity	–	–	–
Oc1ccc(Cl)cc1Cc1cc(Cl)ccc1O [Dichlorophene]	9.83	25.8	proliferation	substantial antiproliferative activity	–	–	–
CO[C@H]1[C@H](O)[C@H](O[C@H]2CC[C@@]3(C)[C@H](CC[C@@H]4[C@@H]3CC[C@]3(C)[C@@H](C5=CC(=O)OC5)CC[C@]43O)C2)O[C@@H](C)[C@@H]1O [Neriifolin]	–	–	invasion/metastasis	substantial antiproliferative activity	0.006	0.003	–
C=C1c2c(Cl)ccc(O)c2C(=O)C2=C(O)[C@]3(O)C(=O)C(C(N)=O)=C(O)[C@@H](N(C)C)[C@@H]3[C@@H](O)[C@H]12 [Meclocycline]	18.8	68.2	–	–	–	–	–
COc1c2ccoc2cc2oc(=O)ccc12 [Bergaptene]	56.4	58.3	proliferation; invasion/	substantial antiproliferative activity	–	–	–
CCN(CCCCOC(=O)c1ccc(OC)c(OC)c1)C(C)Cc1ccc(OC)cc1 (stereo not drawn) [Mebeverine]	–	–	invasion/metastasis	substantial antiproliferative activity	–	–	–
C[n+]1cc2c3c(ccc2c2ccc4cc5c(cc4c21)OCO5)OCO3 [Sanguinarine]	–	–	–	–	2.23	1.93	–
CN[C@H]1CC[C@@H](c2ccc(Cl)c(Cl)c2)c2ccccc21 [Sertraline]	–	–	apoptosis	substantial antiproliferative activity	–	–	–
CO[C@H]1[C@H](O)[C@H](O[C@H]2CC[C@@]3(C=O)[C@H](CC[C@@H]4[C@@H]3CC[C@]3(C)[C@@H](C5=CC(=O)OC5)CC[C@]43O)C2)O[C@@H](C)[C@@H]1O [Peruvoside]	–	–	cell cycle	substantial antiproliferative activity	< 0.03	< 0.03	–
C[C@H]1CC[C@]2(NC1)O[C@H]1C[C@H]3[C@@H]4CC[C@H]5C[C@@H](O[C@@H]6O[C@H](CO)[C@H](O[C@@H]7O[C@H](CO)[C@@H](O)[C@H](O[C@@H]8OC[C@@H](O)[C@H](O)[C@H]8O)[C@H]7O[C@@H]7O[C@H](CO)[C@@H](O)[C@H](O)[C@H]7O)[C@H](O)[C@H]6O)CC[C@]5(C)[C@H]4CC[C@]3(C)[C@H]1[C@@H]2C [Tomatine]	–	–	invasion/metastasis	substantial antiproliferative activity	0.06	0.1	–
Cc1c(N(C)CS(=O)(=O)[O-])c(=O)n(-c2ccccc2)n1C.[Na+] [dipyrone]	–	–	–	substantial antiproliferative activity	–	–	–
COC(=O)C1=C(C)NC(C)=C(C(=O)OCCN(C)Cc2ccccc2)C1c1cccc([N+](=O)[O-])c1 (stereo not drawn) [Nicardipine]	21.9	20.4	–	–	–	–	–
CC(CN1c2ccccc2Sc2ccccc21)N(C)C (stereo not drawn) [Promethazine]	53.8	22.2	proliferation	substantial antiproliferative activity	–	–	–
COC(=O)Nc1nc2ccc(C(=O)c3ccccc3)cc2[nH]1 [Mebendazole]	0.18	–	invasion/metastasis	substantial antiproliferative activity	–	–	0.28
CCCCCCCCNC(C)C(O)c1ccc(SC(C)C)cc1 (stereo not drawn) [Suloctidil]	0.78	0.18	invasion/metastasis	substantial antiproliferative activity	–	–	–
CN1C[C@H](CNC(=O)OCc2ccccc2)C[C@@H]2c3cccc4c3c(cn4C)C[C@H]21 [Melergoline]	5.7	20.7	invasion/metastasis	substantial antiproliferative activity	–	–	–
O=C(CCCN1CC=C(n2c(=O)[nH]c3ccccc32)CC1)c1ccc(F)cc1 [Droperidol]	29.4	13.9	invasion/metastasis	substantial antiproliferative activity	–	–	–
Cc1c(N(C)C)c(=O)n(-c2ccccc2)n1C [4-dimethylaminoantipyrine]	–	–	–	substantial antiproliferative activity	–	–	–
Cc1c(NC(C)C)c(=O)n(-c2ccccc2)n1C [Ramifenazone]	–	–	invasion/metastasis	substantial antiproliferative activity	–	–	–
Fc1ccc(C(c2ccc(F)cc2)N2CCN(C/C=C/c3ccccc3)CC2)cc1 [Flunarizine]	–	–	invasion/metastasis	substantial antiproliferative activity	–	–	–
COC(=O)[C@H]1[C@H]2C[C@@H]3c4[nH]c5cc(OC)ccc5c4CCN3C[C@H]2C[C@@H](OC(=O)c2cc(OC)c(OC)c(OC)c2)[C@@H]1OC [reserpine, Reserpine]	–	–	–	substantial antiproliferative activity	–	–	–
